Assay results: patent US20120282258A1, “CRLF2 IN PRECURSOR B-CELL ACUTE LYMPHOBLASTIC LEUKEMIA” (DANA-FARBER CANCER INSTITUTE, INC., priority 2009, published 2012)
Where a chain is given by its changes, count along the chain named. Names and notes keep the numbering of the source.

How the values were obtained:
[1] = system: BaF3-CRLF2 Phe232Cys cells; test: Toxicity of agents with activity against PKC family kinases in BaF3 cells; format: cell-based, murine
[2] = system: BaF3 cells expressing CRLF2/mutant JAK2; test: Viability of BaF3 cells exposed to JAK inhibitor-1 for 72 hours, relative to vehicle; format: cell-based, murine; settings: BaF3 CRLF2/mutant JAK2, no cytokines, FIG. 5
Method: (§1) FIG. 5 is a graph depicting signal activation and dependence on JAK signaling. BaF3 cells that stably express BCR/ABL, CRLF2 and/or JAK2 were grown in the absence of cytokines. +IL3 indicates unmodified BaF3 cells grown in the presence of 500 pg/mL IL-3. Data represents the ratio of viable cells exposed to JAK inhibitor-1 (Calbiochem) at varying concentrations for 72 hours, compared to the same cell line exposed to vehicle. Error bars indicate one standard deviation.
(§2) As expected, TSLP had no effect on STAT5, ERK or JAK2 phosphorylation in cells with mutant CRLF2 or JAK2 proteins.

[3] = system: BaF3 cells expressing CRLF2 Phe232Cys; test: as above; format: cell-based, murine; settings: no cytokines, FIG. 5
Method: as §1, §2

[4] = system: phospho-JAK2 in CRLF2/IL-7R cells; test: Phospho-JAK2 in CRLF2/IL-7R cells treated with TSLP; format: cell-based, murine
Description: as §2

[5] = system: STAT5, ERK or JAK2 phosphorylation in cells with mutant CRLF2 or JAK2 proteins; test: Phosphorylation of STAT5, ERK and JAK2 in BaF3 cells treated with TSLP; format: cell-based, murine
Description: In BaF3 cells, both CRLF2 Phe232Cys and CRLF2/mutant JAK2 promoted the phosphorylation of the JAK targets STAT5 and ERK.
as §2

[6] = system: BaF3 cells that express CRLF2 Phe232Cys/IL-7R; test: In vitro cell growth in the absence of IL-3 with TSLP added; format: cell-based, murine; settings: BaF3 CRLF2 Phe232Cys/IL-7R, TSLP 1 ng/mL added at day 0, FIG. 3
Method: (§3) FIG. 3 is a group of four graphs depicting in vitro cell growth of UT7 cells and BaF cells that stably express CRLF2 and/or JAK2 alleles grown in the absence of GM-CSF (UT7) or IL-3 (BaF3). For the bottom right panel, TSLP 1 ng/mL was added at day 0, as indicated. Growth is the number of viable cells relative to the number of cells initially seeded on day 0. Error bars represent one standard deviation.
(§4) Unlike cells that express CRLF2/IL-7R, the addition of TSLP had no effect on the growth of BaF3 cells expressing CRLF2 Phe232Cys (FIG. 3).

[7] = system: BaF3 cells that express CRLF2/mutant JAK2; test: as above; format: cell-based, murine
Method: as §3, §4

[8] = system: BaF3 cells expressing CRLF2 Phe232Cys; test: as above; format: cell-based, murine; settings: TSLP 1 ng/mL added at day 0, FIG. 3
Method: as §3, §4

[9] = molecular target: the molecule itself; test: immunoblot of BaF3 cells under reducing and non-reducing conditions (homodimer)
Method: (§5) The CRLF2 Phe232 residue is near the junction of the extracellular and transmembrane domains. Mutations that introduce cysteine residues in this region of other receptor tyrosine kinases, such as RET, can activate signal transduction through intermolecular disulfide-bonded dimers. To confirm that CRLF2 Phe232Cys promotes constitutive dimerization, immunoblots in BaF3 cells expressing wild-type CRLF2 or CRLF2 Phe232Cys were performed under both reducing and non-reducing conditions. Under non-reducing conditions, the molecular weight of the CRLF2 Phe232Cys band, but not the wild-type band, was doubled, consistent with constitutive dimerization through the cysteine residues.

[10] = molecular target: the molecule itself; test: immunoblot of BaF3 cells under reducing and non-reducing conditions (self-association)
Method: as §5

CO[C@@H]1[C@H](N(C)C(=O)c2ccccc2)C[C@H]2O[C@]1(C)n1c3ccccc3c3c4c(c5c6ccccc6n2c5c31)C(=O)NC4 [PKC412]
toxicity in BaF3-CRLF2 Phe232Cys cells as compared to BaF3 cells expressing wild-type CRLF2 [1]: selective toxicity

Cn1c2ccccc2c2c3c(c4c5ccccc5n(CCC#N)c4c21)CNC3=O [Go6976]
toxicity in BaF3-CRLF2 Phe232Cys cells as compared to BaF3 cells expressing wild-type CRLF2 [1]: selective toxicity

CC(C)(C)c1nc2c3cc[nH]c(=O)c3c3cc(F)ccc3c2[nH]1 [small molecule JAK inhibitor]
sensitivity of cells to JAK inhibitor (ratio of viable cells versus vehicle) [2]: highly sensitive
sensitivity of cells to JAK inhibitor (ratio of viable cells versus vehicle) [3]: highly sensitive

COC(=O)[C@@]1(O)C[C@H]2O[C@]1(C)n1c3ccccc3c3c4c(c5c6ccccc6n2c5c31)C(=O)NC4 [k252a]
toxicity in BaF3-CRLF2 Phe232Cys cells as compared to BaF3 cells expressing wild-type CRLF2 [1]: selective toxicity

CN[C@@H]1C[C@H]2O[C@@](C)([C@@H]1OC)n1c3ccccc3c3c4c(c5c6ccccc6n2c5c31)C(=O)N[C@@H]4O [UCN-01]
toxicity in BaF3-CRLF2 Phe232Cys cells as compared to BaF3 cells expressing wild-type CRLF2 [1]: selective toxicity

TSLP: thymic stromal lymphopoietin, cytokine ligand of the CRLF2/IL-7R heterodimer
phospho-JAK2 after TSLP treatment [4]: no detectable phospho-JAK2
effect of TSLP on STAT5, ERK or JAK2 phosphorylation [5]: no effect
effect of TSLP on cell growth [6]: promoted the growth
effect of TSLP on cell growth [7]: did not promote the growth
effect of TSLP on cell growth [8]: no effect

B1: CRLF2 Phe232Cys (F232C mutant of human CRLF2) (receptor)
chain: QGGAAEGVQIQIIYFNLETVQVTWNASKYSRTNLTFHYRFNGDEAYDQCTNYLLQEGHTSGCLLDAEQRDDILYFSIRNGTHPVFTASRWMVYYLKPSSPKHVRFSWHQDAVTVTCSDLSYGDLLYEVQYRSPFDTEWQSKQENTCNVTIEGLDAEKCYSFWVRVKAMEDVYGPDTYPSDWSEVTCWQRGEIRDACAETPTPPKPKLSKCILISSLAILLMVSLLLLSLWKLWRVKKFLIPSVPDPKSIFPGLFEIHQGNFQEWITDTQNVAHLHKMAGAEQESGPEEPLVVQLAKTEAESPRMLDPQTEEKEASGGSLQLPHQPLQGGDVVTIGGFTFVMNDRSYVAL
notes: Expressed in BaF3 cells; also called CRLF2 F232C; CRLF2 711T>G
binding result [9]: binds

B2: wild-type human cytokine receptor-like factor 2 (CRLF2) (receptor)
chain: B1 chain with C210F
notes: Expressed by retrovirus in BaF3 cells and detected by immunoblot of the cells; also called wt CRLF2; CRL2
binding result [10]: no binding
